Results taken from PubChem BioAssay (NCI).
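How tested: cells in 96-well plates exposed to compound for 48 hours at five concentrations. TGI: total growth inhibition.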

How the values were obtained:
Test in all cases: NCI tumour cell line growth inhibition, 48 h
[1] = test system: A498 renal
[2] = test system: A549 NSCLC
[3] = test system: CCRF-CEM leukemia
[4] = test system: COLO 205 colon
[5] = test system: DLD-1 colon
[6] = test system: DMS 114 small cell lung
[7] = test system: DMS 273 small cell lung
[8] = test system: EKVX NSCLC
[9] = test system: HCC-2998 colon
[10] = test system: HCT-116 colon
[11] = test system: HCT-15 colon
[12] = test system: HL-60(TB) leukemia
[13] = test system: HOP-18 NSCLC
[14] = test system: HOP-62 NSCLC
[15] = test system: HOP-92 NSCLC
[16] = test system: HT29 colon
[17] = test system: IGROV1 ovarian
[18] = test system: K-562 leukemia
[19] = test system: KM12 colon
[20] = test system: KM20L2 colon
[21] = test system: LOX IMVI melanoma
[22] = test system: M19-MEL melanoma
[23] = test system: MALME-3M melanoma
[24] = test system: MCF7 breast
[25] = test system: MOLT-4 leukemia
[26] = test system: NCI-H226 lung
[27] = test system: NCI-H23 lung
[28] = test system: NCI-H460 lung
[29] = test system: NCI-H522 lung
[30] = test system: NCI/ADR-RES ovarian
[31] = test system: OVCAR-3 ovarian
[32] = test system: OVCAR-4 ovarian
[33] = test system: OVCAR-5 ovarian
[34] = test system: OVCAR-8 ovarian
[35] = test system: P388 leukemia
[36] = test system: RXF 393 renal
[37] = test system: SF-268 CNS
[38] = test system: SF-295 CNS
[39] = test system: SF-539 CNS
[40] = test system: SK-MEL-2 melanoma
[41] = test system: SK-MEL-28 melanoma
[42] = test system: SK-MEL-5 melanoma
[43] = test system: SK-OV-3 ovarian
[44] = test system: SN12C renal
[45] = test system: SN12K1 renal
[46] = test system: SNB-19 CNS
[47] = test system: SNB-75 CNS
[48] = test system: SW-620 colon
[49] = test system: U251 CNS
[50] = test system: UACC-257 melanoma
[51] = test system: UACC-62 melanoma
[52] = test system: UO-31 renal
[53] = test system: XF 498 CNS
[54] = test system: 786-0 renal
[55] = test system: ACHN renal
[56] = test system: CAKI-1 renal
[57] = test system: LXFL 529 NSCLC
[58] = test system: M14 melanoma
[59] = test system: RPMI-8226 leukemia
[60] = test system: RXF-631 renal
[61] = test system: SNB-78 CNS
[62] = test system: SR leukemia
[63] = test system: TK-10 renal

Structure (SMILES): COc1cc(N=Nc2cccc(S(=O)(=O)O)c2)c(C)cc1N=Nc1ccc(/C=C/c2ccc(N=[N+]([O-])c3ccc(/C=C/c4ccc(N=Nc5cc(C)c(N=Nc6cccc(S(=O)(=O)O)c6)cc5OC)cc4)c(S(=O)(=O)O)c3)cc2S(=O)(=O)O)cc1
- TGI [1]: > 100 µM
- TGI [2]: > 100 µM
- TGI [3]: > 100 µM
- TGI [4]: > 100 µM
- TGI [5]: > 100 µM
- TGI [6]: > 100 µM
- TGI [7]: > 100 µM
- TGI [8]: > 100 µM
- TGI [9]: > 100 µM
- TGI [10]: > 100 µM
- TGI [11]: > 100 µM
- TGI [12]: > 100 µM
- TGI [13]: > 100 µM
- TGI [14]: > 100 µM
- TGI [15]: > 100 µM
- TGI [16]: > 100 µM
- TGI [17]: > 100 µM
- TGI [18]: > 100 µM
- TGI [19]: > 100 µM
- TGI [20]: > 100 µM
- TGI [21]: > 100 µM
- TGI [22]: > 100 µM
- TGI [23]: > 100 µM
- TGI [24]: > 100 µM
- TGI [25]: > 100 µM
- TGI [26]: > 100 µM
- TGI [27]: > 100 µM
- TGI [28]: > 100 µM
- TGI [29]: > 100 µM
- TGI [30]: > 100 µM
- TGI [31]: > 100 µM
- TGI [32]: > 100 µM
- TGI [33]: > 100 µM
- TGI [34]: > 100 µM
- TGI [35]: > 100 µM
- TGI [36]: > 100 µM
- TGI [37]: > 100 µM
- TGI [38]: > 100 µM
- TGI [39]: > 100 µM
- TGI [40]: > 100 µM
- TGI [41]: > 100 µM
- TGI [42]: > 100 µM
- TGI [43]: > 100 µM
- TGI [44]: > 100 µM
- TGI [45]: > 100 µM
- TGI [46]: > 100 µM
- TGI [47]: > 100 µM
- TGI [48]: > 100 µM
- TGI [49]: > 100 µM
- TGI [50]: > 100 µM
- TGI [51]: > 100 µM
- TGI [52]: > 100 µM
- TGI [53]: > 100 µM

Structure (SMILES): O=C(CCCCCCCCCCc1ccccc1)c1c(O)cccc1O
- TGI [54]: 32.3 µM
- TGI [2]: 76.1 µM
- TGI [55]: 69.9 µM
- TGI [56]: 74.8 µM
- TGI [3]: 90.8 µM
- TGI [4]: 56.5 µM
- TGI [5]: 39.7 µM
- TGI [6]: 45.3 µM
- TGI [7]: 34 µM
- TGI [8]: 48.7 µM
- TGI [9]: 44.3 µM
- TGI [10]: 48.3 µM
- TGI [11]: 38.7 µM
- TGI [12]: 71.6 µM
- TGI [13]: 67.5 µM
- TGI [14]: 42.2 µM
- TGI [15]: 41.8 µM
- TGI [16]: 88 µM
- TGI [17]: 60.5 µM
- TGI [18]: 58.7 µM
- TGI [19]: 33.2 µM
- TGI [20]: > 100 µM
- TGI [21]: 72.9 µM
- TGI [57]: 34.7 µM
- TGI [58]: 35.6 µM
- TGI [22]: 42.7 µM
- TGI [23]: 34.3 µM
- TGI [25]: 61.8 µM
- TGI [26]: 41.8 µM
- TGI [27]: 35.9 µM
- TGI [28]: 39.6 µM
- TGI [29]: 42.4 µM
- TGI [31]: 63.1 µM
- TGI [32]: 57.5 µM
- TGI [33]: 45.2 µM
- TGI [34]: 38.1 µM
- TGI [59]: > 100 µM
- TGI [36]: 39.9 µM
- TGI [60]: 85.4 µM
- TGI [37]: 57.8 µM
- TGI [38]: 47 µM
- TGI [39]: 34.8 µM
- TGI [40]: 31.3 µM
- TGI [41]: 40.1 µM
- TGI [42]: 30.4 µM
- TGI [43]: > 100 µM
- TGI [44]: 34.6 µM
- TGI [46]: 41.3 µM
- TGI [47]: 63.8 µM
- TGI [61]: > 100 µM
- TGI [62]: 63.4 µM
- TGI [48]: 34.7 µM
- TGI [63]: > 100 µM
- TGI [49]: 38.1 µM
- TGI [50]: 38.8 µM
- TGI [51]: 36.2 µM
- TGI [52]: 38.7 µM
- TGI [53]: 40.1 µM

Structure (SMILES): Oc1cc2cc(-c3ccccc3)[nH]c2c2ccccc12
- TGI [54]: > 100 µM
- TGI [1]: > 100 µM
- TGI [2]: > 100 µM
- TGI [55]: > 88.3 µM
- TGI [56]: 90.8 µM
- TGI [3]: > 100 µM
- TGI [4]: > 37.8 µM
- TGI [5]: > 100 µM
- TGI [6]: 27.7 µM
- TGI [7]: 2.06 µM
- TGI [8]: > 100 µM
- TGI [9]: > 100 µM
- TGI [10]: 37.1 µM
- TGI [11]: > 100 µM
- TGI [12]: > 100 µM
- TGI [13]: > 96 µM
- TGI [14]: > 100 µM
- TGI [15]: > 95.6 µM
- TGI [16]: > 100 µM
- TGI [17]: > 100 µM
- TGI [18]: > 88.8 µM
- TGI [19]: > 100 µM
- TGI [20]: > 100 µM
- TGI [21]: 34.3 µM
- TGI [57]: > 100 µM
- TGI [58]: 61 µM
- TGI [22]: 28.9 µM
- TGI [23]: 41.6 µM
- TGI [25]: > 82.6 µM
- TGI [26]: > 100 µM
- TGI [27]: 36.6 µM
- TGI [28]: 72.1 µM
- TGI [29]: 37.4 µM
- TGI [31]: > 61.4 µM
- TGI [32]: > 100 µM
- TGI [33]: > 100 µM
- TGI [34]: > 100 µM
- TGI [59]: 67.6 µM
- TGI [36]: > 78.3 µM
- TGI [60]: > 89.8 µM
- TGI [37]: > 100 µM
- TGI [38]: > 24.5 µM
- TGI [39]: 97.1 µM
- TGI [40]: 43.5 µM
- TGI [41]: > 100 µM
- TGI [42]: 27.2 µM
- TGI [43]: > 100 µM
- TGI [44]: > 92.9 µM
- TGI [46]: > 70.2 µM
- TGI [47]: > 100 µM
- TGI [61]: > 100 µM
- TGI [62]: > 93.6 µM
- TGI [48]: > 100 µM
- TGI [63]: > 100 µM
- TGI [49]: > 100 µM
- TGI [50]: 32.5 µM
- TGI [51]: 29.4 µM
- TGI [52]: > 92.6 µM
- TGI [53]: 25.9 µM
